Assay results from patent publication US12275927B2, “Microbial contamination control in bioprocessing” (The Regents of the University of California, priority 2019, dated 2025).

Assays:
[1] = tested on: RFP-expressing E. coli, OW94; conditions: read-out: chlorite IC50; OW94 negative control, growth (OD600) 24 hours at 37° C., MRM medium
Description: (§1) 100 μL of water was added to the negative control wells. The plate was then placed in a shaker and cultivated overnight at 37° C., 250 rpm. IC50 were determined 24 hours after inoculation by measuring OD600.

[2] = tested on: cCld expressing strain OW116
Description: as §1

[3] = tested on: parental LMG194; conditions: read-out: chlorite IC50; LMG194, growth (OD600) 24 hours at 37° C., MRM medium
Description: as §1

[4] = tested on: wtCld-expressing OW95
Description: as §1

[5] = tested on: chlorite hyper-resistant strain OW105; conditions: MRM medium
Description: as §1
OW95 cells were revived from freezer stocks, transferred into liquid MRM medium, and induced for Cld expression as described above.

[6] = tested on: OW116
Description: (§2) A 2 L round-bottom autoclavable laboratory fermenter (BiOENGiNEERiNG), was operated as an iso-volumetric chemostat with 1 L of MRM medium in the bioreactor vessel. Temperature, dissolved oxygen (dO), and pH were monitored during the course of the experiments. Temperature was set and maintained at 37° C. pH was set to 7.2 and adjusted automatically based on the real time pH value with 1M NaOH or 1M HCl. dO was set to 20% of the maximal dO value at 37° C. with constant air flow of 2 L/min. Constant dO was maintained by automatic agitation speed adjustment based on the real-time dO value. Agitation speed varied between 200-700 RPM, depending on oxygen demand. Two separate pumps were used to control medium inflow and waste outflow rates.
(§3) The chemostat at first operated as a batch culture (dilution rate equal to 0), until the culture reached mid-log phase (OD600 of ˜0.7-1.0), then dilution rate was set to be approximately equal to the cell growth rate. This allowed the bioreactor to achieve a zero net growth while maintaining a near-maximum specific growth rate. […] All growth data were plotted and calculated using the Prism 7 software.

[7] = tested on: OW94
Description: as §2, §3

[8] = tested on: C. crescentus phage CR-30; conditions: incubated with chlorite at 30 C
Description: (§4) Influent wastewater samples were collected from the East Bay Municipal Utility District's wastewater treatment plant in Oakland, CA, and filtered through […] filters to remove debris and microbes. To make a phage enrichment culture, 5 mL of filtered wastewater was mixed with 5 mL of 2× LB medium and inoculated with 100 μL of stationary E. coli cells, incubated for 48 hours at 37° C., 50 RPM. Next, a sterile cotton swab was dipped into an overnight E. coli culture, smeared on an LB agar plate, and 10 μL of the phage enrichment culture was then spotted on the plate. The plate was incubated overnight at 37° C. […] Phage particles from the clear zone were picked into the phage buffer (10 mM Tris, 1 mM CaCl2 10 mM MgCl2, 68 mM NaCl, pH 7.5, adapted from the Phage Hunting Program, University of Pittsburgh), followed by dilution to extinction and plating to obtain single plaques with pure phage cultures. Phage cultures were maintained at 4° C. in the phage buffer. […] Samples were taken at designated time points and mixed with PYE (0.3%) agar and log phase (OD660 0.1-04) C. crescentus culture before plating on PYE plates. Plaque forming unites were counted after 24 hours.

[9] = tested on: E. coli lytic phages; conditions: 4 mM chlorite, 37° C.
Description: as §4

[10] = tested on: SCW enrichment culture; conditions: 4 mM chlorite, OW117 bioreactor, SCW enrichment added
Description: as §2

[11] = tested on: contaminants from Strawberry Creek water; conditions: 10 mM chlorite spiked, reactor contaminated with 1% (v/v) creek water, OW115
Description: as §2

[12] = tested on: SCW enrichment culture, OW117 and OW118; conditions: SCW enrichment vs OW117 vs OW118
Description: as §3

[13] = tested on: Azospira suillum PS; conditions: 40 μM chlorite, unpublished observations
[14] = tested on: cld deletion (Acid) mutant; conditions: 40 μM chlorite, unpublished observations
[15] = 4 mM chlorite spiked into chemostat at equilibrium growth, 37° C.
[16] = batch cultures, different chlorite concentrations

Sodium chlorite
IC50 [1]: 560 µM
chlorite resistance of cCld relative to wtCld ([2]; cCld vs wtCld): 5 fold
IC50 ([2]; read-out: chlorite IC50, OW116, growth (OD600) 24 hours at 37° C., MRM medium): 8940 µM
IC50 [3]: 300 µM
increase in chlorite resistance compared to negative controls ([4]; OW95 vs OW94 and LMG194): three-fold increase
IC50 ([4]; read-out: chlorite IC50, OW95, Cld induced at 26° C., growth (OD600) 24 hours at 37° C., MRM medium): 1740 µM
chlorite concentration in which the strain was able to grow, reaching a similar final OD600 as without chlorite control ([5]; end of directed evolution, 37° C.): 8 mM
IC50 ([5]; read-out: chlorite IC50, OW105, growth (OD600) 24 hours at 37° C.): 4600 µM
specific growth rate after the chlorite spike [6, 15]: 0.64 ± 0.10 h⁻¹
reduction of specific growth rate after the chlorite spike ([6]; 4 mM chlorite, chemostat, vs before spike): ~20%
specific growth rate in batch culture as chlorite concentration increased [6, 16]: only reduced slightly
specific growth rate after the chlorite spike [7, 15]: 0.01 ± 0.07 h⁻¹
specific growth rate in batch culture as chlorite concentration increased [7, 16]: drastically decreased
phage inactivation [8]: chlorite-induced phage inactivation
phage inactivation [9]: chlorite-induced phage inactivation
indigo production after addition of contaminants [10]: indigo was steadily produced until the end of the experiment
effect of chlorite spike on the contaminated bioreactor [11]: contaminants were inhibited and washed out
batch growth in medium with chlorite [12]: only OW118 could endure medium with chlorite
aerobic growth in the presence of chlorite [13]: grew aerobically
aerobic growth in the presence of chlorite [14]: failed to grow
